Test results taken from ChEMBL document CHEMBL1629460, “Image-based high-throughput drug screening targeting the intracellular stage of Trypanosoma cruzi, the agent of Chagas' disease” (Antimicrob Agents Chemother, 2010).

Legend:
[1] = Cytotoxicity against BESM cells after 88 hrs by HTS assay; assay type: ADME, cell-based; conditions: Bos taurus
Trypanosoma cruzi [2] = test: Antitrypanosomal activity against Trypanosoma cruzi PSD-I infected in BESM cells measured after 88 hrs postinfection by HTS assay; assay type: functional, organism-based
Trypanosoma cruzi [3] = test: Antitrypanosomal activity against Trypanosoma cruzi CA-I/72 infected in BESM cells measured after 88 hrs postinfection by HTS assay; assay type: functional, organism-based; conditions: CA-I/72, BESM
Trypanosoma cruzi [4] = test: Antitrypanosomal activity against Trypanosoma cruzi Sylvio-X10/7 infected in BESM cells measured after 88 hrs postinfection by HTS assay; assay type: functional, organism-based; conditions: Sylvio-X10/7, BESM
Trypanosoma cruzi [5] = test: Antitrypanosomal activity against Trypanosoma cruzi amastigotes infected in BESM cells measured after 88 hrs postinfection by HTS assay; assay type: functional, organism-based
[6] = Selectivity window, ratio of EC50 for BESM cells to EC50 for Trypanosoma cruzi amastigotes infected in BESM cells; set-up: reference not given here

EC50 (Trypanosoma cruzi [2]) [µM] | EC50 (Trypanosoma cruzi [3]) [µM] | EC50 (Trypanosoma cruzi [4]) [µM] | EC50 (Trypanosoma cruzi [5]) [µM] | SMILES | EC50 [1] [µM] | Ratio EC50 [6]
3 | 4.2 | 3 | – | CN1CCN(C(=O)N[C@@H](Cc2ccccc2)C(=O)N[C@H](/C=C/S(=O)(=O)c2ccccc2)CCc2ccccc2)CC1 [K-777] | > 20 | –
– | – | – | 1 | CN1CCCC(n2nc(Cc3ccc(Cl)cc3)c3ccccc3c2=O)CC1 (stereo not drawn) [AZELASTINE] | 49 | 49

Continued, compound first:

SMILES | EC50 (Trypanosoma cruzi [2]) [µM] | EC50 (Trypanosoma cruzi [3]) [µM] | EC50 (Trypanosoma cruzi [4]) [µM] | EC50 (Trypanosoma cruzi [5]) [µM] | EC50 [1] [µM] | Ratio EC50 [6]
CC[C@@H]([C@H](C)O)n1ncn(-c2ccc(N3CCN(c4ccc(OC[C@@H]5CO[C@@](Cn6cncn6)(c6ccc(F)cc6F)C5)cc4)CC3)cc2)c1=O [POSACONAZOLE] | 0.13 | 0.2 | 0.08 | – | > 2 | –
CC1CS(=O)(=O)CCN1/N=C/c1ccc([N+](=O)[O-])o1 (stereo not drawn) [NIFURTIMOX] | 2.1 | 1.2 | 0.7 | – | > 10 | –
CN(C)CCCN1c2ccccc2CCc2ccc(Cl)cc21 [CLOMIPRAMINE] | – | – | – | 8 | > 50 | >6.3
